Data set [1] can be described thus: Plasma nicotinamide, NAL and NAL-X levels by HPLC after i.p. nicotinylalanine with or without ASA in uninfected mice. Type of data set: in vivo, C57BL/6 mice. As to conditions: for Plasma nicotinamide (NAm) level / concentration at 2 h: mean ± S.E., N=8; for concentration at 2 h: mouse, plasma, ip, 400 mg/kg, read-out: Plasma nicotinylalanine (NAL) level. As to the method: The concentration of nicotinamide and its major metabolites were determined by comparison of peak area ratios of the unknown versus internal standard (6-methylnicotinamide, Sigma Chemical Company) to the standard curves run in control mouse blood plasma.
Mice were treated with racemic nicotinylalanine alone (400 mg/kg) or in combination with acetyl salicylic acid (ASA) at a dose of either 20 mg/kg or 100 mg/kg body weight. […] Control mice received the vehicle for the drug compositions, being phosphate buffered saline (PBS), at the same volume on the same dose schedule as the drug-treated mice. Chronic dosing was performed daily for two weeks, Monday through Friday, and one group of mice received only a single (acute) dose of nicotinylalanine. All mice were killed two hours after their final dose and blood was collected by cardiac puncture and stored on ice, until centrifugation in a microfuge at 10,000 rpm to obtain plasma.
Concentrations of nicotinamide, nicotinamide-oxide, 1-methyl-nicotinamide, and nicotinylalanine extracted from 90% methanol, dried under N2, and reconstituted in water as above were determined by comparison of the peak area ratios of the unknown vs. the internal standard to the standard curve. Concentrations of the unidentified nicotinylalanine metabolite (NAL-X) were determined in the same way as above, except peaks were compared to the standard curve for known nicotinylalanine. The results are expressed as nanomoles of nicotinamide and nicotinylalanine per ml of plasma (nmol/ml).

Data set [2] can be described thus: Plasma pharmacokinetics of nicotinylalanine after i.v., i.p. and oral administration. The class given is in vivo, C57BL/6 mice. The settings on record: for bioavailability / half-life / Tmax: 400 mg/kg; for Tmax: read-out: Time of peak plasma level of NAL (converted); for k el: read-out: Ke (converted). The procedure:
The purpose of this study was to determine the plasma pharmacokinetics of nicotinylalanine in fasted, female C57BL/6 mice after intravenous (i.v.), intraperitoneal (i.p.), and oral (p.o.) administration of equivalent doses of nicotinylalanine at 400 mg/kg body weight. The analytic methods used in these studies were the same as described in Example 1 and Table 1 for Metabolic Studies.
Bioavailability of nicotinylalanine after p.o. and i.p. administration was determined by comparison of the areas under the plasma time curves with the area under the plasma time curve for the i.v. administration of an equivalent dose at 400 mg/kg into the tail vein. Time points were evaluated from five minutes to 1,440 minutes (24 hours) after dosing, although the rapid pharmacokinetics under each dosing regimen focused the time parameters to less than six hours.
Although there are several compartmental analyses which could be used to model the pharmacokinetic data, for derivation of pharmacokinetic parameters a simple non-compartmental analysis was selected. The computer program used to generate the parameters (Table 5) and for fitting the curves (FIGS. 7, 8) was the Lagran Program using the Lagrange Function. See, Rocci M. L. and Jusko W. J. 1983, "Lagran Program for Area and Moments in Pharmacokinetic Analysis", Comp. Prog. Biomed. 16, 203-212; and Yeh K. C. and Quan K. C. 1978, "A Comparison of Numerical Integrating Algorithms by Trapezoidal Lagrange and Spline Approximations", J. Pharmacokinet. Biopharmacol. 6, 79-93.

For data set [3] the following is noted: acute 500 mg/kg racemic NAL (Connick 1992); cited from earlier work.
Data set [4] is described as follows: Behavioral toxicity, chronic i.p. dosing in mice. As to conditions: chronic i.p. racemic NAL 400 mg/kg, more than four months. The class given is in vivo, C57BL/6 mice. As to the method:
Results from studies in a mouse model of AIDS (i.e., the LP-BM5 strain of murine leukemia virus-induced murine acquired immunodeficiency syndrome, MAIDS) are consistent with efficacy of a parenteral dose in humans of nicotinylalanine (isomer) between about 100 and 200 mg/kg body weight per day in combination with aspirin at about 20 mg/kg per day. […] Connick J. H., et al., Gen. Pharmac., 23:235-239, 1992. […] Vague P., et al., Lancet, I:619-620, 1987. This is consistent with the lack of toxicity reported for NAm in other human studies. (Hoffer A., Schizophrenia, 1:78-87, 1969).

In data set [5] the test system is LP-BM5 MuLV Retrovirus. The settings on record: cited from earlier work.
Setting [6] is: acute (single) NAL 400 mg/kg i.p., two hours after dose.
Setting [7] is: chronic (2 Week) dosing of nicotinylalanine alone.
Setting [8] is: chronic (2 weeks) NAL 400 mg/kg i.p. alone, two hours after last dose.
[9] abbreviates: two hours after acute i.p. 400 mg/kg NAL.

This is an account of results in patent US5916906A, “Compositions comprising nicotinylalanine and an inhibitor of glycine conjugation or vitamin B6” (priority 1997, dated 1999).

Read-outs that look alike come from different tables or passages of the source.

Consider `NC(CC(=O)c1cccnc1)C(=O)O` (racemic) [NAL, γ-(3-pyridyl)-γ-oxo-α-aminobutyrate], for which the “Plasma nicotinamide (NAm) level” value in data set [1] (setting [6]) came to 7.4 ± 2.3 nmol/mL; in data set [1] (setting [8]), 4.7 ± 1.1 nmol/mL. Also, in data set [1] (setting [7]), the “Change in plasma nicotinylalanine levels” value is “nearly ten-fold decrease”. For the same compound, the “Nicotinamide plasma level (in words)” value in data set [1] (setting [7]) is “return to nearly baseline levels of nicotinamide”. For the same compound, the concentration at 2 h in data set [1] (setting [6]) was determined as 115 ± 65.6 µM; in data set [1] (setting [8]) it was 11.2 ± 4.5 µM. Further, in data set [1] (setting [9]), the “Nicotinamide plasma level versus PBS-injected controls” value was “about twice those found in PBS-injected controls”. The “Plasma level of NAL versus NAL-X” value in data set [1] (setting [9]) was “about twice as high”. Further, the CL in data set [2] (NAL 400 mg/kg, i.p., fasted female mice) amounted to 31.6; in data set [2] (NAL 400 mg/kg, p.o., fasted female mice), 50.2. Besides, in data set [2] (especially in the oral dosage form), the “Volume of distribution (Vdss), in words” value is listed as “consistent with a compound well-distributed in aqueous compartments”. Moreover, the “Bioavailability i.p. versus i.v. or oral, in words” value in data set [2] (i.p. compared to i.v. or oral) was “apparently greater however when the i.p. route is used”. Moreover, the bioavailability in data set [2] (mouse, plasma, ip, NAL 400 mg/kg, i.p., fasted female mice, read-out: F (fraction bioavailable)) is 183%; in data set [2] (mouse, plasma, po, NAL 400 mg/kg, p.o., fasted female mice, read-out: F (fraction bioavailable)), 105%; in data set [2] (mouse, plasma, po, oral dose, read-out: fraction bioavailable (F)), ~100%. Also, the half-life in data set [2] (mouse, plasma, ip, NAL 400 mg/kg, i.p., fasted female mice, read-out: t1/2) is 24.9 min; in data set [2] (mouse, plasma, ip, i.p., read-out: t1/2 (half-life of plasma nicotinylalanine)), ~25 min; in data set [2] (mouse, plasma, iv, NAL 400 mg/kg, i.v., fasted female mice, read-out: t1/2), 40.2 min; in data set [2] (mouse, plasma, iv, i.v., read-out: t1/2 (half-life of plasma nicotinylalanine)), ~40 min; in data set [2] (mouse, plasma, po, NAL 400 mg/kg, p.o., fasted female mice, read-out: t1/2), 58.7 min; in data set [2] (mouse, plasma, po, oral, read-out: t1/2 (half-life of plasma nicotinylalanine)), ~60 min. Moreover, the Tmax was ~5 min in data set [2] (mouse, plasma, ip); ~5 min in data set [2] (mouse, plasma, iv); ~10 min in data set [2] (mouse, plasma, oral gavage). Besides, the k el in data set [2] (mouse, plasma, ip, NAL 400 mg/kg, i.p., fasted female mice) was 0.000463 s⁻¹; in data set [2] (mouse, plasma, iv, NAL 400 mg/kg, i.v., fasted female mice), 0.000287 s⁻¹; in data set [2] (mouse, plasma, po, NAL 400 mg/kg, p.o., fasted female mice), 0.000197 s⁻¹. The Vd/F in data set [2] (mouse, plasma, ip, NAL 400 mg/kg, i.p., fasted female mice, read-out: Vdss) is 0.821 L/kg; in data set [2] (mouse, plasma, po, NAL 400 mg/kg, p.o., fasted female mice, read-out: Vdss) it was 3.35 L/kg. The compound further showed a clearance in data set [2] (mouse, plasma, iv, NAL 400 mg/kg, fasted female mice) of 57.3 mL/min/kg. Also, the Vd in data set [2] (mouse, plasma, iv, NAL 400 mg/kg, i.v., fasted female mice, read-out: Vdss) worked out at 1.33 L/kg. In data set [2] (oral NAL 400 mg/kg, transient), the “Nicotinamide plasma level versus control” value is reported as “about twice control”. For the same compound, in data set [2] (oral compared with i.p. dose), the “t1/2 oral versus i.p.” value is given as “approximately twice as long”. Further, the “t1/2 oral versus i.v.” value in data set [2] (oral compared with i.v. dose) is “approximately one and a half (11/2) times as long”. Also, in data set [3], the Behavioral effects result is reported as “not to result in any behavioral effects”. For the same compound, the Behavioral toxicity result in data set [4] is “not been associated with obvious behavioral toxicity”.

As to `Cc1cn([C@H]2C[C@H](N=[N+]=[N-])[C@@H](CO)O2)c(=O)[nH]c1=O` [AZT, 3'azido-3'deoxythymidine, reference compound], the “Disease progression (in words)” value in data set [5] (AZT 0.1 mg/kg (Eiseman 1991)) is recorded as “still delayed disease progression”. Also, the “Control of LP-BM5 disease (in words)” value in data set [5] (AZT 0.5 mg/kg in drinking water, chronic (Eiseman 1991)) is listed as “effective in controlling LP-BM5 disease”.
